Experimental findings from patent publication US11952344B2, “Heterocyclic compound and use thereof” (TAKEDA PHARMACEUTICAL COMPANY LIMITED, priority 2019, dated 2024) are described below.

The target in this experiment is T1, Human NMDA (NR1/NR2B) Receptor (Homo sapiens, UniProt Q13224).
T1 construct: host or cells: HEK293
T1 sequence (Q13224 27-1484, other chains not shown): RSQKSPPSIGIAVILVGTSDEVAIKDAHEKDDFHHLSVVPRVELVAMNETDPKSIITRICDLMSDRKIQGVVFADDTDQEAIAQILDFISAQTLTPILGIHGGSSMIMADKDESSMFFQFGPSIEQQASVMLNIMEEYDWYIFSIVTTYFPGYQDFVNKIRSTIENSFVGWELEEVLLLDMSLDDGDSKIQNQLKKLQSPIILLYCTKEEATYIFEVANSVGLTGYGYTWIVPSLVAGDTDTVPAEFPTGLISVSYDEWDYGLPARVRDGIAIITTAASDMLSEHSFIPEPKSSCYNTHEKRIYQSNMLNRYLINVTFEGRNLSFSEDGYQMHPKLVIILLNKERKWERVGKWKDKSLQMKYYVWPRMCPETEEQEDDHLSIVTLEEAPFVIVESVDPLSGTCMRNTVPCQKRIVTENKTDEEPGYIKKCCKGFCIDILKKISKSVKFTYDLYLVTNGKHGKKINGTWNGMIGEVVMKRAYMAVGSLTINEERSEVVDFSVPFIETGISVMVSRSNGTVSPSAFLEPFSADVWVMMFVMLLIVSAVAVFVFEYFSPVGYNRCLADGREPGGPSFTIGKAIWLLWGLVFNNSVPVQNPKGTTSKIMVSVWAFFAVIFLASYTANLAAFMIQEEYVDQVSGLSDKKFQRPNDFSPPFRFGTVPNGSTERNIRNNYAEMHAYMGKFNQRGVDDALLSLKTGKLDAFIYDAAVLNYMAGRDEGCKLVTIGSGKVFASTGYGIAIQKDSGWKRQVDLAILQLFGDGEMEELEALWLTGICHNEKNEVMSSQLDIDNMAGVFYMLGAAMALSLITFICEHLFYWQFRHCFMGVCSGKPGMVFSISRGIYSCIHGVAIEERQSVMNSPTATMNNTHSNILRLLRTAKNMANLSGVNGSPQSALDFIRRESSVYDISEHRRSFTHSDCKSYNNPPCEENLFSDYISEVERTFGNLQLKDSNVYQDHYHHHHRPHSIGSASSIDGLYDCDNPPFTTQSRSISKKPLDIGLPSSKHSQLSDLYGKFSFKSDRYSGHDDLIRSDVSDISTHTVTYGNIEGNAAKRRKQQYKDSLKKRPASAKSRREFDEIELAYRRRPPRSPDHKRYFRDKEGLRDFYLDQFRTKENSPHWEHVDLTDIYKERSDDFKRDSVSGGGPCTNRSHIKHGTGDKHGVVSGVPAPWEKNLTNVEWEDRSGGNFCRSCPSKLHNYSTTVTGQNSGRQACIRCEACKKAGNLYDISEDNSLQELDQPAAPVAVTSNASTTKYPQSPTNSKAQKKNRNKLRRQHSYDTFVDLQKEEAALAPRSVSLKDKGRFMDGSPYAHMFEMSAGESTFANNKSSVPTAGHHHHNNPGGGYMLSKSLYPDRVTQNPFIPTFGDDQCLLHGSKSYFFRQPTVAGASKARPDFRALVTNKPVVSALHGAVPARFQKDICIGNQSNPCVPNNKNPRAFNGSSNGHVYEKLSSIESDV
As to the kind of experiment: NR2B Ca2+ influx assay. The experiment is classed as cell-based. The settings on record: 10 μM compound; HEK293 cells expressing GRIN1 and GRIN2B; glutamic acid/glycine-induced Ca2+ influx, Fluo-4 fluorescence; read-out: inhibitory rate (10 μM compound concentration). From the text:
Experimental Example 1 NR2B Ca^2+ Influx Assay
To confirm the “antagonistic action on an NMDA receptor containing the NR2B subunit” of the compound of the present invention, human embryonic kidney cell expressing the “NMDA receptor composed of four subunits including 2 sets of heterodimers of NR1 and NR2B”, specifically HEK293 cell expressing human glutamate ionotropic receptor NMDA type subunit 1 (GRIN1) and human glutamate ionotropic receptor NMDA type subunit 2B (GRIN2B), was used and the activation suppressive effect (inhibitory activity) on the receptors by the compound of the present invention was measured.
HEK293 cells that express GRIN1 and GRIN2B were purchased from ChanTest (Human NMDA (NR1/NR2B) Receptor-expressing, stable replicating cell line (HEK293) catalog No. CT6121).
As an index of the NMDA receptor activation, intracellular calcium ion (Ca^2+) influx caused by the binding of glycine and glutamic acid with NR1 and NR2B, respectively, was used.
HEK293 cells that express GRIN1 and GRIN2B were cultured in a cell culture flask in DMEM/F-12 (COSMO BIO, 10-092-CM) medium added with 10% FBS (fetal bovine serum, AusGene), 100 units/mL penicillin, 100 μg/mL streptomycin, 500 μg/mL neomycin, 100 μg/mL Zeocin (registered trade mark, Invitrogen), 5 μg/mL Blasticidin, in an incubator (37° C., 5% CO2).
The cells were detached from flask with trypsin the day before the assay, suspended in a seeding medium (DMEM (Invitrogen, 31053) added with 10% FBS, 100 units/mL penicillin, 100 μg/mL streptomycin) at 8×10^5 cells/mL, seeded by 25 μL/well in a 384-well plate (Falcon, 356663) at 20000 cells/well, and cultured overnight in an incubator. On the day of the assay, tetracycline (Wako Pure Chemical Industries, Ltd., 209-16561) was diluted with the seeding medium at 2 μg/mL, added at 25 μL/well to the plate seeded with the cells, and cultured for 2 hr in an incubator. Thereafter, the medium was removed, and the cells were washed with 50 μL/well assay buffer (137 mM NaCl, 4 mM KCl, 1.8 mM CaCl2, 10 mM HEPES (pH 7.2), 10 mM Glucose, 0.1% BSA). Then, a loading buffer (assay buffer added with 2.5 μM Fluo-4AM, 2 mM Amaranth, 1 mM Tartrazine) was added at 25 μL/well, and incubation was performed in the incubator for 30 min, and at room temperature for 15 min. A solution (25 μL/well) of the Example compound diluted with the above-mentioned assay buffer at 30 μM (final concentration 10 μM) was added, and the cells were stood for 15 min at room temperature. Using FDSS7000EX/μCELL (Hamamatsu Photonics K.K.), 25 μL/well of an assay buffer containing 30 μM glutamic acid, 30 μM glycine was added, and the fluorescence signal at wavelength of Excitation 480 nm, Emission 540 nm was measured every 3 seconds for 5 min. The inhibitory activity was calculated as a relative activity value (inhibitory rate) that inhibits 100% of the cumulative value of the fluorescence value of a well added with an assay buffer free of glutamic acid, glycine, relative to the cumulative value of the fluorescence value of each well.
For `Cc1c(F)cncc1CNC(=O)c1ccc(OC(F)F)c(F)c1` [Example 69, 4-(difiuoromethoxy)-3-fluoro-N-[(5-fluoro-4-methylpyridin-3-yl)methyl]benzamide], the inhibition at 10 µM was found to be 94%.

`O=C(NCc1cnccc1C(F)F)c1cnc(OC(F)F)c(F)c1` [Example 70, 6-(difluoromethoxy)-N-{[4-(difluoromethyl)pyridin-3-yl]methyl)-5-fluoropyridine-3-carboxamide]: the inhibition at 10 µM amounted to 91%.

Turning to `COc1c(F)cc(C(=O)NCc2cnccc2C)cc1F` [Example 71, 3,5-difluoro-4-methoxy-N-[(4-methylpyridin-3-yl)methyl]benzamide], the inhibition at 10 µM was 91%.

As to `CCOc1c(F)cc(C(=O)NCc2cnccc2C)cc1F` [Example 72, 4-ethoxy-3,5-difluoro-N-[(4-methylpyridin-3-yl)methyl]benzamide], the inhibition at 10 µM was determined as 87%.

`Cc1c(F)cncc1CNC(=O)c1cnc(OC(F)F)c(Cl)c1` [Example 73, 5-chloro-6-(difluoromethoxy)-N-[(5-fluoro-4-methylpyridin-3-yl)methyl]pyridine-3-carboxamide]: the inhibition at 10 µM stood at 93%.

On to `COc1c(F)cc(C(=O)NCc2cncnc2OC2CC2)cc1F` [Example 74, N-{[4-(cyclopropyloxy)-pyrimidin-5-yl]methyl}-3,5-difluoro-4-methoxybenzamide], for which the inhibition at 10 µM came out at 90%.

Take `CCOc1ncc(C(=O)NCc2cncnc2OC2CC2)cc1F` [Example 75, N-{[4-(cyclopropyloxy)-pyrimidin-5-yl]methyl}-6-ethoxy-5-fluoropyridine-3-carboxamide]: the inhibition at 10 µM is 93%.

`O=C(NCc1cncnc1OC1CC1)c1cc(F)c(OC(F)F)c(F)c1` [Example 76, N-{[4-(cyclopropyloxy)-pyrimidin-5-yl]methyl}-4-(difluoromethoxy)-3,5-difluorobenzamide]: the inhibition at 10 µM came out at 95%.

On to `O=C(NCc1cncnc1OC1CC1)c1ccc(OC(F)F)c(F)c1` [Example 77, N-{[4-(cyclopropyloxy)-pyrimidin-5-yl]methyl}-4-(difluoromethoxy)-3-fluorobenzamide], for which the inhibition at 10 µM is 94%.

As to `O=C(NCc1cncnc1OC1CC1)c1cnc(OC(F)F)c(Cl)c1` [Example 78, 5-chloro-N-{[4-(cyclopropyloxy)pyrimidin-5-yl]methyl}-6-(difluoromethoxy)pyridine-3-carboxamide], the inhibition at 10 µM worked out at 94%.

In the case of `COc1ncncc1CNC(=O)c1csc(C2CC2)c1` [Example 79, 5-cyclopropyl-N-[(4-methoxypyrimidin-5-yl)methyl]thiophene-3-carboxamide], the inhibition at 10 µM amounted to 89%.

As to `Cc1c(F)cncc1CNC(=O)c1cnc(C2CC2)c(F)c1` [Example 80, 6-cyclopropyl-5-fluoro-N-[(5-fluoro-4-methylpyridin-3-yl)methyl]pyridine-3-carboxamide], the inhibition at 10 µM was found to be 94%.

Consider `O=C(NCc1cncnc1OC1CC1)c1cnc(C2CC2)c(F)c1` [Example 81, 6-cyclopropyl-N-{[4-(cyclopropyloxy)-pyrimidin-5-yl]methyl}-5-fluoropyridine-3-carboxamide], for which the inhibition at 10 µM was 90%.

Regarding `COc1ncncc1CNC(=O)c1cnc(C2CC2)c(F)c1` [Example 82, 6-cyclopropyl-5-fluoro-N-[(4-methoxypyrimidin-5-yl)methyl]pyridine-3-carboxamide], the inhibition at 10 µM stood at 89%.

As for `COc1ncncc1CNC(=O)c1cnc(C2CC2)c(Cl)c1` [Example 83, 5-chloro-6-cyclopropyl-N-[(4-methoxypyrimidin-5-yl)methyl]pyridine-3-carboxamide], the inhibition at 10 µM is 92%.

For `COc1ncncc1CNC(=O)c1cc(F)c(OC)c(Cl)c1` [Example 84, 3-chloro-5-fluoro-4-methoxy-N-[(4-methoxypyrimidin-5-yl)methyl]benzainide], the inhibition at 10 µM came to 91%.

Consider `CCOc1ncc(C(=O)NCc2cncnc2OC)cc1Cl` [Example 85, 5-chloro-6-ethoxy-N-[(4-methoxypyrimidin-5-yl)methyl]pyridine-3-carboxamide], for which the inhibition at 10 µM came out at 87%.

Consider `CCOc1ncncc1CNC(=O)c1cc(F)c(OC)c(F)c1` [Example 86, N-[(4-ethoxypyrimidin-5-yl)methyl]-3,5-difluoro-4-methoxybenzamide], for which the inhibition at 10 µM stood at 90%.

On to `CCOc1ncncc1CNC(=O)c1cc(F)c(OC(F)F)c(F)c1` [Example 87, 4-(difluoromethoxy)-N-[(4-ethoxypyrimidin-5-yl)methyl]-3,5-difluorobenzamide], for which the inhibition at 10 µM is 93%.

On to `CCOc1ncncc1CNC(=O)c1cnc(OC(F)F)c(Cl)c1` [Example 88, 5-chloro-6-(difluoromethoxy)-N-[(4-ethoxypyrimidin-5-yl)methyl]pyridine-3-carboxamide], for which the inhibition at 10 µM was 92%.

`COc1ccncc1CNC(=O)c1cc(F)c(OC)c(F)c1` [Example 89, 3,5-difluoro-4-methoxy-N-[(4-methoxypyridin-3-yl)methyl]benzamide]: the inhibition at 10 µM stood at 92%.

On to `COc1c(F)cc(C(=O)NCc2cncc(F)c2OC)cc1F` [Example 90, 3,5-difluoro-N-[(5-fluoro-4-methoxypyridin-3-yl)methyl]-4-methoxybenzamide], for which the inhibition at 10 µM was found to be 95%.

Take `CC(F)(F)c1ncc(C(=O)NCc2cncnc2OC2CC2)cc1F` [Example 91, N-{[4-(cyclopropyloxy)-pyrimidin-5-yl]methyl}-6-(1,1-difluoroethyl)-5-fluoropyridine-3-carboxamide]: the inhibition at 10 µM was found to be 91%.

As to `COc1ncncc1CNC(=O)c1cnc(C(C)(F)F)c(F)c1` [Example 92, 6-(1,1-difluoroethyl)-5-fluoro-N-[(4-methoxypyrimidin-5-yl)methyl]pyridine-3-carboxamide], the inhibition at 10 µM is 86%.

Take `Cc1ccncc1CNC(=O)c1cnc(C(C)(F)F)c(F)c1` [Example 93, 6-(1,1-difluoroethyl)-5-fluoro-N-[(4-methylpyridin-3-yl)methyl]pyridine-3-carboxamide]: the inhibition at 10 µM stood at 90%.

In the case of `Cc1c(F)cncc1CNC(=O)c1cnc(C(C)(F)F)c(F)c1` [Example 94, 6-(1,1-difluoroethyl)-5-fluoro-N-[(5-fluoro-4-methylpyridin-3-yl)methyl]pyridine-3-carboxamide], the inhibition at 10 µM was 91%.

With `CC(F)(F)c1ncc(C(=O)NCc2cncnc2OC2CC2)cc1Cl` [Example 95, 5-chloro-N-{[4-(cyclopropyloxy)pyrimidin-5-yl]methyl}-6-(1,1-difluoroethyl)pyridine-3-carboxamide], the inhibition at 10 µM is 90%.

For the compound `COc1ncncc1CNC(=O)c1cnc(C(C)(F)F)c(Cl)c1` [Example 96, 5-chloro-6-(1,1-difluoroethyl)-N-[(4-methoxypyrimidin-5-yl)methyl]pyridine-3-carboxamide], the inhibition at 10 µM worked out at 85%.

For `Cc1ccncc1CNC(=O)c1cnc(C(C)(F)F)c(Cl)c1` [Example 97, 5-chloro-6-(1,1-difluoroethyl)-N-[(4-methylpyridin-3-yl)methyl]pyridine-3-carboxamide], the inhibition at 10 µM is 92%.

Turning to `Cc1c(F)cncc1CNC(=O)c1cnc(C(C)(F)F)c(Cl)c1` [Example 98, 5-chloro-6-(1,1-difluoroethyl)-N-[(5-fluoro-4-methylpyridin-3-yl)methyl]pyridine-3-carboxamide], the inhibition at 10 µM is 95%.

With `O=C(NCc1cnccc1OC(F)F)c1cnc(OC(F)F)c(F)c1` [Example 99, 6-(difluoromethoxy)-N-{[4-(difluoromethoxy)pyridin-3-yl]methyl}-5-fluoropyridine-3-carboxamide], the inhibition at 10 µM was determined as 89%.

Take `Cc1ccncc1CNC(=O)c1csc(C(F)F)c1` [Example 100, 5-(difluoromethyl)-N-[(4-methylpyridin-3-yl)methyl]thiophene-3-carboxamide]: the inhibition at 10 µM is 72%.
